Assay results taken from the kinase profiling compilation of Christmann-Franck et al. (2016).

Assays:
Experiment in all cases: KINOMEscan competition binding
Conditions in all cases: compound 10.0 µM
[1] = system: PIK3CA (human), P42336 [C420R]
[2] = system: PIK3CA (human), P42336 [H1047Y]
[3] = system: FLT3 (human), P36888 [K663Q]
[4] = system: PIK3CA (human), P42336 [E545A]
[5] = system: KIT (human), P10721 [V559D]
[6] = system: PIK3CA (human), P42336 [E545K]
[7] = system: KIT (human), P10721 [D816V]
Sequence of KIT (human), P10721 [D816V] (P10721 whole entry D816V, looked up): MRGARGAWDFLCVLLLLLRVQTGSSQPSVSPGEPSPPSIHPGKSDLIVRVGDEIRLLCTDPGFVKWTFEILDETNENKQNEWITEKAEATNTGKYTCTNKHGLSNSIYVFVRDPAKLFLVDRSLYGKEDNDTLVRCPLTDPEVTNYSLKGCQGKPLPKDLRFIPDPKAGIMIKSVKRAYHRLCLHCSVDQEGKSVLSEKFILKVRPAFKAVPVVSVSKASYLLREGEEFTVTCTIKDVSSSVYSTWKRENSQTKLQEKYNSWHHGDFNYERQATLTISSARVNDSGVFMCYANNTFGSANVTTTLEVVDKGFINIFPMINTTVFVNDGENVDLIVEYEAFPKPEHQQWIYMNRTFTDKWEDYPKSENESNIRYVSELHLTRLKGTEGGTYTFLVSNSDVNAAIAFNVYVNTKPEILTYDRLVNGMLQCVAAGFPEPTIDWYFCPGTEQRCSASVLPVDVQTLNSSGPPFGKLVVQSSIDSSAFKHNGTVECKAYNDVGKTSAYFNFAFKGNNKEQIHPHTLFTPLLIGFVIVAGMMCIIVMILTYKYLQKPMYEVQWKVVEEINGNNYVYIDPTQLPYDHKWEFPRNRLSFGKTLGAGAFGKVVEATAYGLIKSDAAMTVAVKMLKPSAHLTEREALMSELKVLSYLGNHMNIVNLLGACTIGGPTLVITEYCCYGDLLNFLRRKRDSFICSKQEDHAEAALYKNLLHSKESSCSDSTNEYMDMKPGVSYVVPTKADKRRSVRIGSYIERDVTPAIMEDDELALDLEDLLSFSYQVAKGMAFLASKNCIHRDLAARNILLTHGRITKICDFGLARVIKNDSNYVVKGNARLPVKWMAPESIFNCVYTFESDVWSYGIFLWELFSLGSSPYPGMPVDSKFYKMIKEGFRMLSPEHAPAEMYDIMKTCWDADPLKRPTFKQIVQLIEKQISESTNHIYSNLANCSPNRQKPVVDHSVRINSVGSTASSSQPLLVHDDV

[8] = system: ABL1 (human), P00519 [M351T]
[9] = system: ABL1 (human), P00519 [T315I]
[10] = system: ABL1 (human), P00519 [Q252H]
[11] = system: PIK3CA (human), P42336 [Q546K]
Sequence of PIK3CA (human), P42336 [Q546K] (P42336 whole entry Q546K, looked up): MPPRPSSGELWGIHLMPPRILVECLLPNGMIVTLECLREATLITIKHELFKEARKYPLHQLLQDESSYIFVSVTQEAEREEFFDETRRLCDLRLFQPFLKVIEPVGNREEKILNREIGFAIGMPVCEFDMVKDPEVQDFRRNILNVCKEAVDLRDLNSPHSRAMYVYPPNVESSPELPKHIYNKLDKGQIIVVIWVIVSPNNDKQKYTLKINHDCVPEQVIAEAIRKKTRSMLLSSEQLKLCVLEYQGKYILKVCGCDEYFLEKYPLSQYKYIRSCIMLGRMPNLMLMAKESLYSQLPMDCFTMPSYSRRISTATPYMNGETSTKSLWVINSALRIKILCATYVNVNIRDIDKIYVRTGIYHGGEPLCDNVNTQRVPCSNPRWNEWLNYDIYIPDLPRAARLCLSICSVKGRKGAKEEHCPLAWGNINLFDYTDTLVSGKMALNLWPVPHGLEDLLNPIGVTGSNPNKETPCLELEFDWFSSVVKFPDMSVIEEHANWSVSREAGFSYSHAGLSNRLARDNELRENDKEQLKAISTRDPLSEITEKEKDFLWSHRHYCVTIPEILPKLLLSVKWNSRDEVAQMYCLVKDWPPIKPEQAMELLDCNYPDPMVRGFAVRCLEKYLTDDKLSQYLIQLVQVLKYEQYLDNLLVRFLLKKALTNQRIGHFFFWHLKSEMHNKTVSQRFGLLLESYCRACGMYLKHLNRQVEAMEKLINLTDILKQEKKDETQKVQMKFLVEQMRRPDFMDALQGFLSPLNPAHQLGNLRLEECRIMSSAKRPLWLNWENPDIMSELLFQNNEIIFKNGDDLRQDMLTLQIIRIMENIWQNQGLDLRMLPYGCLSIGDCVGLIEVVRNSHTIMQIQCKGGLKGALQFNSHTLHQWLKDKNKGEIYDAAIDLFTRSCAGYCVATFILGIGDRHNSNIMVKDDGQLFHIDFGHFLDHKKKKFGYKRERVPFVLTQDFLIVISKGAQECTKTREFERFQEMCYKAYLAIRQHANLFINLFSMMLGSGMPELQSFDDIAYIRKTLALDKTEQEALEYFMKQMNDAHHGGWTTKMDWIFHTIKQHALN

[12] = system: KIT (human), P10721 [V559D/T670I]
Sequence of KIT (human), P10721 [V559D/T670I] (P10721 whole entry V559D/T670I, looked up): as the sequence (P10721 whole entry D816V, looked up) above, with V559D, T670I, V816D counted along it

[13] = system: FLT3 (human), P36888 [N841I]
[14] = system: EIF2AK4 KD2 (human), Q9P2K8 [S808G]
Sequence of EIF2AK4 KD2 (human), Q9P2K8 [S808G] (Q9P2K8 whole entry S808G, looked up): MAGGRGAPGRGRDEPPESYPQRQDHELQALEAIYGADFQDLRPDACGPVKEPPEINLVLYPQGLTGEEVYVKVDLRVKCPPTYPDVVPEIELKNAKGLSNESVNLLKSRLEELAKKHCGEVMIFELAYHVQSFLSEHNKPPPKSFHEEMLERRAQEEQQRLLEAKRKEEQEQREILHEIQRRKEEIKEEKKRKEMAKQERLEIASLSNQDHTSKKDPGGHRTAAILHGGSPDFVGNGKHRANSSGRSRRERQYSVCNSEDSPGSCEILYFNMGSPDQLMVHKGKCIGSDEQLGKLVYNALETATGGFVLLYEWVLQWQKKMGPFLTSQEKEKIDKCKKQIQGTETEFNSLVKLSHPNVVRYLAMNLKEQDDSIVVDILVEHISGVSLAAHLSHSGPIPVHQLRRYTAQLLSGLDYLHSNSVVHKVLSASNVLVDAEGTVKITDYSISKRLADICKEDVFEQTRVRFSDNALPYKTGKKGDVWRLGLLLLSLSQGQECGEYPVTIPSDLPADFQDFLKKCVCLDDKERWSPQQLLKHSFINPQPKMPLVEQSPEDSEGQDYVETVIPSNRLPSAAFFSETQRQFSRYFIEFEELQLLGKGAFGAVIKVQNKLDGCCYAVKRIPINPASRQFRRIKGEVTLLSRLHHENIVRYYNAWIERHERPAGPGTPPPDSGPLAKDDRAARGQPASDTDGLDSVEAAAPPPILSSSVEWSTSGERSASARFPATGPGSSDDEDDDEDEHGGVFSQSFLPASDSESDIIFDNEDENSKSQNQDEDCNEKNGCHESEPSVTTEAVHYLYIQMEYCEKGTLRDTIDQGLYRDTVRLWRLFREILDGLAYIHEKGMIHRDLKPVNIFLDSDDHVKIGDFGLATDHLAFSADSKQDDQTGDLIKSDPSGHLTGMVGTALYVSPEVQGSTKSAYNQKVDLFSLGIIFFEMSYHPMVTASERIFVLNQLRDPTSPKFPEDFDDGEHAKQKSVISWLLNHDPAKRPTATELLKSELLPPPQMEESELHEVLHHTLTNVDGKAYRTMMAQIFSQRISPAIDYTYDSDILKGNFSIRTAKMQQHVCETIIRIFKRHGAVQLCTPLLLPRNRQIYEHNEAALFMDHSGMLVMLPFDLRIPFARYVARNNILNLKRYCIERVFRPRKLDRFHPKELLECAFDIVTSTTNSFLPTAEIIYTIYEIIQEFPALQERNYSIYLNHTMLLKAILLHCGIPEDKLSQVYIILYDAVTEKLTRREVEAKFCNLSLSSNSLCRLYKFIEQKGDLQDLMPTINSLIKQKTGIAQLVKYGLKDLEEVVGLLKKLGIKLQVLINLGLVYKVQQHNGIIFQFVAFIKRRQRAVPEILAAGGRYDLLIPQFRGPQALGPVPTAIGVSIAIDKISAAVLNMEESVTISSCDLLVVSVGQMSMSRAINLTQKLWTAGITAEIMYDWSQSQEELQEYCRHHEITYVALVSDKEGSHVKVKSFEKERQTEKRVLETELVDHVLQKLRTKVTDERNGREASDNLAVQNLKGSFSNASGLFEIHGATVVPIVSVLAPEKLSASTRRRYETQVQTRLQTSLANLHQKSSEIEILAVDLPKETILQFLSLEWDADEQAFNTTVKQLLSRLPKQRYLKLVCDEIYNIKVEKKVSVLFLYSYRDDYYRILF

[15] = system: PIK3CA (human), P42336 [I800L]
Sequence of PIK3CA (human), P42336 [I800L] (P42336 whole entry I800L, looked up): as the sequence (P42336 whole entry Q546K, looked up) above, with K546Q, I800L counted along it

[16] = system: FLT3 (human), P36888 [ITD]
[17] = system: EGFR (human), P00533 [P753S; 747-752 del]
[18] = system: EGFR (human), P00533 [G719S]
[19] = system: EGFR (human), P00533 [746-750 del]
[20] = system: ABL1 (human), P00519 [E255K]
[21] = system: EGFR (human), P00533 [L861Q]

Sequence of PIK3CA (human), P42336 [C420R] (P42336 whole entry C420R, looked up): as the sequence (P42336 whole entry Q546K, looked up) above, with C420R, K546Q counted along it
Sequence of KIT (human), P10721 [V559D] (P10721 whole entry V559D, looked up): as the sequence (P10721 whole entry D816V, looked up) above, with V559D, V816D counted along it
Sequence of PIK3CA (human), P42336 [E545A] (P42336 whole entry E545A, looked up): as the sequence (P42336 whole entry Q546K, looked up) above, with E545A, K546Q counted along it
Sequence of PIK3CA (human), P42336 [E545K] (P42336 whole entry E545K, looked up): as the sequence (P42336 whole entry Q546K, looked up) above, with E545K, K546Q counted along it
Sequence of PIK3CA (human), P42336 [H1047Y] (P42336 whole entry H1047Y, looked up): as the sequence (P42336 whole entry Q546K, looked up) above, with K546Q, H1047Y counted along it

Row | Structure (SMILES) | kinase still bound, per cent of control [1] [%] | kinase still bound, per cent of control [2] [%] | kinase still bound, per cent of control [3] [%] | kinase still bound, per cent of control [4] [%] | kinase still bound, per cent of control [5] [%] | kinase still bound, per cent of control [6] [%] | kinase still bound, per cent of control [7] [%] | kinase still bound, per cent of control [8] [%] | kinase still bound, per cent of control [9] [%] | kinase still bound, per cent of control [10] [%] | kinase still bound, per cent of control [11] [%] | kinase still bound, per cent of control [12] [%] | kinase still bound, per cent of control [13] [%] | kinase still bound, per cent of control [14] [%] | kinase still bound, per cent of control [16] [%] | kinase still bound, per cent of control [17] [%] | kinase still bound, per cent of control [18] [%] | kinase still bound, per cent of control [19] [%] | kinase still bound, per cent of control [20] [%] | kinase still bound, per cent of control [21] [%] | other results
1 | CCN(CCO)CCCOc1ccc2c(Nc3cc(CC(=O)Nc4cccc(F)c4)[nH]n3)ncnc2c1 | 72 | 30 | 1 | 31 | 0 | 100 | 23 | 39 | 0.6 | 32 | 15 | 0 | 0.15 | 62 | 2.5 |  |  |  |  |  | kinase still bound, per cent of control [15]: 100%
2 | CCN(CC)CCCCNc1ncc2c(n1)N(C)C(=O)N(c1c(Cl)c(OC)cc(OC)c1Cl)C2 | 100 | 100 | 100 | 100 | 6.1 | 100 | 100 | 100 | 100 | 100 | 100 | 100 | 100 | 9.5 | 100 | 100 | 100 | 100 | 100 | 100 | 
3 | CCOc1cc(N2CCC(O)CC2)ccc1Nc1ncc2c(n1)N(C)c1ccccc1C(=O)N2C | 100 | 100 | 100 | 100 | 100 | 100 | 100 | 100 | 100 | 100 | 100 | 100 | 100 | 100 | 100 | 100 | 100 | 100 | 100 | 100 | 
